Conditions: mouse, in vivo, iv

Substance: Ac-WDLIQLIVSDGSDLIQLIVSD-NH2 [12B]
- half-life in blood: < 10 min

Reference: PMC7275043 (Nature Communications, 2020)
